30 compounds from US20230416205A1, “COMPOUNDS, COMPOSITIONS, AND METHODS” (Denali Therapeutics Inc, priority 2020, published 2023) can be followed below.

For this test, the system named is NLRP3. Put plainly: IL-1β secretion assay in PMA-differentiated, LPS/nigericin-stimulated THP-1 cells (384-well, ELISA read-out). It counts as cell-based, human. Conditions: Homo sapiens. In short, it runs like this: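 THP-1 cells differentiated with PMA (5 ng/mL, 40 h), primed in serum-free medium with 25 ng/mL LPS for 2 h, treated with compounds 1 h (0.5% DMSO), then stimulated with nigericin for 2 h at 37 °C. Supernatant IL-1β measured by ELISA; responses normalized to LPS+5 μM nigericin and LPS-only controls.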

The mark [1] stands for this setting: THP-1, IL-1β secretion, PMA-differentiated THP-1 cells, LPS then nigericin stimulation, ELISA read at 450 nm, read-out: Activity.
The mark [2] stands for this setting: THP-1, Table 4, IL-1β secretion, LPS/nigericin-stimulated THP-1 cells, read-out: IC50.

Like-named read-outs stand apart in the source and are kept apart here.

With `O=C(CN1CC2(CC2)c2cc(Br)ccc2C1=O)Nc1ccc2cc[nH]c2c1` [Example 44, 2-(6-bromo-1-oxospiro[3H-isoquinoline-4,1′-cyclopropane]-2-yl)-N-(1H-indol-6-yl)acetamide], the IC50 was less than 10 µM under setting [1] and 1.26 µM under setting [2].
The matching figures for `O=C(CN1CC2(CC2)c2cc(Br)ccc2C1=O)NC1CCc2cn[nH]c2C1` (stereo not drawn) [Example 45, 2-(6-bromo-1-oxospiro[3H-isoquinoline-4,1′-cyclopropane]-2-yl)-N-(4,5,6,7-tetrahydro-1H-indazol-6-yl)acetamide]: less than 10 µM and 6.25 µM.
The matching figures for `CC1(C)CN(CC(=O)N[C@H]2C[C@@](C)(O)C2)C(=O)c2ccc(Br)cc21` [Example 46, 2-(6-bromo-4,4-dimethyl-1-oxo-3H-isoquinolin-2-yl)-N-(cis-3-hydroxy-3-methyl-cyclobutyl)acetamide]: less than 10 µM and 1.54 µM.
The matching figures for `CC(C)(O)CCNC(=O)CN1CC2(CC2)c2cc(Br)ccc2C1=O` [Example 47, 2-(6-bromo-1-oxospiro[3H-isoquinoline-4,1′-cyclopropane]-2-yl)-N-(3-hydroxy-3-methylbutyl)acetamide]: less than 10 µM and 4.7 µM.
As for `O=C(CN1CC2(CC2)c2cc(Br)ccc2C1=O)Nc1ncc(-n2cccn2)cn1` [Example 48, 2-(6-bromo-1-oxospiro[3H-isoquinoline-4,1′-cyclopropane]-2-yl)-N-(5-pyrazol-1-ylpyrimidin-2-yl)acetamide], the IC50 is, setting by setting: under setting [1], less than 10 µM; under setting [2], 0.238 µM.
The matching figures for `CC(C)(O)C12CC(NC(=O)CN3CC4(CC4)c4cc(Br)ccc4C3=O)(C1)C2` [Example 49, 2-(6-bromo-1-oxo-spiro[3H-isoquinoline-4,1′-cyclopropane]-2-yl)-N-[3-(1-hydroxy-1-methyl-ethyl)-1-bicyclo[1.1.1]pentanyl]acetamide]: less than 10 µM and 3.01 µM.
Consider `CC(C)(O)C1CC(NC(=O)CN2CC3(CC3)c3cc(Br)ccc3C2=O)C1` (stereo not drawn) [Example 50, 2-(6-bromo-1-oxospiro[3H-isoquinoline-4,1′-cyclopropane]-2-yl)-N-[3-(2-hydroxypropan-2-yl)cyclobutyl]acetamide], for which the IC50 runs as follows: under setting [1], less than 10 µM; under setting [2], 6.44 µM.
The matching figures for `O=C(CN1CC2(CC2)c2cc(Br)ccc2C1=O)NC12CCC(CC1)OC2` [Example 51, 2-(6-bromo-1-oxo-spiro[3H-isoquinoline-4,1′-cyclopropane]-2-yl)-N-(2-oxabicyclo[2.2.2]octan-4-yl)acetamide]: 10 to 15 µM and 9.07 µM.
The matching figures for `CC1CC(NC(=O)CN2CC3(CC3)c3cc(Br)ccc3C2=O)C1` (stereo not drawn) [Example 52, 2-(6-bromo-1-oxo-spiro[3H-isoquinoline-4,1′-cyclopropane]-2-yl)-N-(3-methylcyclobutyl)acetamide]: less than 10 µM and 2.08 µM.
The matching figures for `CC12CC(NC(=O)CN3CC4(CC4)c4cc(Br)ccc4C3=O)(CO1)C2` [Example 53, 2-(6-bromo-1-oxo-spiro[3H-isoquinoline-4,1′-cyclopropane]-2-yl)-N-(1-methyl-2-oxabicyclo[2.1.1]hexan-4-yl)acetamide]: less than 10 µM and 7.83 µM.
For the compound `O=C(CN1CC2(CC2)c2cc(Br)ccc2C1=O)N[C@H]1C[C@H](C(F)(F)F)C1` [Example 54, 2-(6-bromo-1-oxo-spiro[3H-isoquinoline-4,1′-cyclopropane]-2-yl)-N-[trans-3-(trifluoromethyl)cyclobutyl]acetamide], the IC50 runs as follows: under setting [1], less than 10 µM; under setting [2], 1.55 µM.
The matching figures for `O=C(CN1CC2(CC2)c2cc(Br)ccc2C1=O)NC1CC(O)(C(F)(F)F)C1` (stereo not drawn) [Example 55, 2-(6-bromo-1-oxo-spiro[3H-isoquinoline-4,1′-cyclopropane]-2-yl)-N-[cis-3-hydroxy-3-(trifluoromethyl)cyclobutyl]acetamide]: less than 10 µM and 0.861 µM.
Consider `O=C(CN1CC2(CC2)c2cc(Br)ccc2C1=O)NC12CCC(CC1)CC2` [Example 56, N-(1-bicyclo[2.2.2]octanyl)-2-(6-bromo-1-oxo-spiro[3H-isoquinoline-4,1′-cyclopropane]-2-yl)acetamide], for which the IC50 was less than 10 µM under setting [1] and 7.92 µM under setting [2].
The matching figures for `O=C(CN1CC2(CC2)c2cc(Br)ccc2C1=O)NC12CCC(O)(CC1)CC2` [Example 57, 2-(6-bromo-1-oxo-spiro[3H-isoquinoline-4,1′-cyclopropane]-2-yl)-N-(4-hydroxy-1-bicyclo[2.2.2]octanyl)acetamide]: less than 10 µM and 5.92 µM.
The matching figures for `O=C(CN1CC2(CC2)c2cc(Br)ccc2C1=O)NC1CCCC(O)C1` (stereo not drawn) [Example 58, 2-(6-bromo-1-oxo-spiro[3H-isoquinoline-4,1′-cyclopropane]-2-yl)-N-(3-hydroxycyclohexyl)acetamide]: less than 10 µM and 3.09 µM.
As to `CN1CC(NC(=O)CN2CC3(CC3)c3cc(Br)ccc3C2=O)CC1=O` (stereo not drawn) [Example 59, 2-(6-bromo-1-oxo-spiro[3H-isoquinoline-4,1′-cyclopropane]-2-yl)-N-(1-methyl-5-oxo-pyrrolidin-3-yl)acetamide], the IC50 reads like this: under setting [1], greater than 15 µM; under setting [2], 18.3 µM.
As for `O=C(CN1CC2(CC2)c2cc(Br)ccc2C1=O)NC1CC(OC(F)F)C1` (stereo not drawn) [Example 60, 2-(6-bromo-1-oxo-spiro[3H-isoquinoline-4,1′-cyclopropane]-2-yl)-N-[3-(difluoromethoxy)cyclobutyl]acetamide], the IC50 runs as follows: under setting [1], less than 10 µM; under setting [2], 8.68 µM.
The matching figures for `O=C(CN1CC2(CC2)c2cc(Br)ccc2C1=O)NC1CC2(COC2)C1` [Example 61, 2-(6-bromo-1-oxo-spiro[3H-isoquinoline-4,1′-cyclopropane]-2-yl)-N-(2-oxaspiro[3.3]heptan-6-yl)acetamide]: less than 10 µM and 2.75 µM.
The matching figures for `CCN1CC(NC(=O)CN2CC3(CC3)c3cc(Br)ccc3C2=O)CCC1=O` (stereo not drawn) [Example 62, 2-(6-bromo-1-oxo-spiro[3H-isoquinoline-4,1′-cyclopropane]-2-yl)-N-(1-ethyl-6-oxo-3-piperidyl)acetamide]: 10 to 15 µM and 12.1 µM.
In the case of `CC(C)(O)CNC(=O)CN1CC2(CC2)c2cc(Br)ccc2C1=O` [Example 63, 2-(6-bromo-1-oxo-spiro[3H-isoquinoline-4,1′-cyclopropane]-2-yl)-N-(2-hydroxy-2-methyl-propyl)acetamide], the IC50 runs as follows: under setting [1], greater than 15 µM; under setting [2], 16.5 µM.
The matching figures for `O=C(CN1CC2(CC2)c2cc(Br)ccc2C1=O)N[C@H]1C[C@@H](CO)C1` [Example 64, 2-(6-bromo-1-oxo-spiro[3H-isoquinoline-4,1′-cyclopropane]-2-yl)-N-[cis-3-(hydroxymethyl)cyclobutyl]acetamide]: less than 10 µM and 6.4 µM.
The matching figures for `N#CC1CC(NC(=O)CN2CC3(CC3)c3cc(Br)ccc3C2=O)C1` (stereo not drawn) [Example 65, 2-(6-bromo-1-oxo-spiro[3H-isoquinoline-4,1′-cyclopropane]-2-yl)-N-(3-cyanocyclobutyl)acetamide]: less than 10 µM and 6.86 µM.
The matching figures for `CC(C)(O)C1CCN(C(=O)CN2CC3(CC3)c3cc(Br)ccc3C2=O)C1` (stereo not drawn) [Example 66, 6-bromo-2-[2-[3-(1-hydroxy-1-methyl-ethyl)pyrrolidin-1-yl]-2-oxo-ethyl]spiro[3H-isoquinoline-4,1′-cyclopropane]-1-one]: greater than 15 µM and 26.2 µM.
Regarding `O=C(CN1CC2(CC2)c2cc(Br)ccc2C1=O)NC1CC(F)(F)C1` [Example 67, 2-(6-bromo-1-oxo-spiro[3H-isoquinoline-4,1′-cyclopropane]-2-yl)-N-(3,3-difluorocyclobutyl)acetamide], the IC50 is less than 10 µM under setting [1] and 8.75 µM under setting [2].
For the compound `CC1(O)CCN(C(=O)CN2CC3(CC3)c3cc(Br)ccc3C2=O)C1` (stereo not drawn) [Example 68, 6-bromo-2-[2-(3-hydroxy-3-methyl-pyrrolidin-1-yl)-2-oxo-ethyl]spiro[3H-isoquinoline-4,1′-cyclopropane]-1-one], the IC50 by setting is: under setting [1], greater than 15 µM; under setting [2], 28.6 µM.
`CC1CN(CC(=O)NC2CC(C)(O)C2)C(=O)c2ccc(Br)cc21` (stereo not drawn) [Example 69, 2-(6-bromo-4-methyl-1-oxo-3,4-dihydroisoquinolin-2-yl)-N-(cis-3-hydroxy-3-methyl-cyclobutyl)acetamide]: the IC50 under setting [1] is less than 10 µM and the IC50 under setting [2] was 0.643 µM.
For the compound `O=C(CN1CC2(CC2)c2cc(Br)ccc2C1=O)N[C@@H]1CCCN(C2CCC2)C1` [Example 70, 2-(6-bromo-1-oxo-spiro[3H-isoquinoline-4,1′-cyclopropane]-2-yl)-N-[(3R)-1-cyclobutyl-3-piperidyl]acetamide], the IC50 is less than 10 µM under setting [1] and 0.191 µM under setting [2].
For the compound `COC(=O)N1CCC[C@@H](NC(=O)CN2CC3(CC3)c3cc(Br)ccc3C2=O)C1` [Example 71, methyl (3R)-3-[[2-(6-bromo-1-oxo-spiro[3H-isoquinoline-4,1′-cyclopropane]-2-yl)acetyl]amino]piperidine-1-carboxylate], the IC50 by setting is: under setting [1], less than 10 µM; under setting [2], 6.96 µM.
Take `N#Cc1ccc(NC(=O)CN2CC3(CC3)c3cc(Br)ccc3C2=O)nc1` [Example 72, 2-(6-bromo-1-oxospiro[3H-isoquinoline-4,1′-cyclopropane]-2-yl)-N-(5-cyanopyridin-2-yl)acetamide]: the IC50 under setting [1] is less than 10 µM and the IC50 under setting [2] is 0.511 µM.
Take `Cn1cc(NC(=O)CN2CC3(CC3)c3cc(Br)ccc3C2=O)ccc1=O` [Example 73, 2-(6-bromo-1-oxo-spiro[3H-isoquinoline-4,1′-cyclopropane]-2-yl)-N-(1-methyl-6-oxo-3-pyridyl)acetamide]: the IC50 is, setting by setting: under setting [1], 10 to 15 µM; under setting [2], 11.5 µM.
